These results are taken from US8703107B2, “Cosmetic composition including leucodopachrome derivative” (Chanel Parfums Beaute, priority 2009, dated 2014).

The test has as its system Hyperpigmented melanocytes derived from normal neonatal prepuce. The experiment in a line: Effect on melanin synthesis in cultured hyperpigmented melanocytes (melanin content read at 490 nm). Format: cell-based. The procedure:
3 solutions of methyl ester of triacetyl leucodopachrome were prepared, respectively at concentrations of 0.0025%, 0.00025% and 0.000025% by weight in DMSO.
The effect of the methyl ester of (S)-triacetyl leucodopachrome on melanin synthesis was evaluated according to the following procedure.
Hyperpigmented melanocytes derived from normal neonatal prepuce of separate donors were bought from the company Cascade Biologics (Portland, Oreg., United States). The cells were seeded in 6-well plates and cultured in a growth medium of the melanocytes (medium topped up with bovine pituitary extract, fetal bovine serum, bovine insulin, transferrin, conventional fibroblast growth factor, hydrocortisone, heparin and phorbol 12-myristate 13-acetate).
In a second stage, the cells were incubated with a growth medium (MGM, Clonetics) containing the active products, in three copies, for 5 days. The medium was withdrawn and the cells washed with PBS (Gibco/Invitrogen). The cells were lyzed and the melanin solubilized in NaOH.
The supernatant was centrifuged. After centrifugation, the clear lysate was transferred to a new plate and the melanin content was measured on an ELISA reader at 490 nm. The pellets were visualized on an Alphalnnotech imager.

`COC(=O)[C@@H]1Cc2cc(OC(C)=O)c(OC(C)=O)cc2N1C(C)=O` [methyl ester of (S)-triacetyl leucodopachrome]: the “inhibition of the melanin synthesis (in words)” value (0.000025% to 0.0025% solutions) was “increases with the concentration”. For the setting “Melanocyte, 120 h, 0.000025% by weight solution in DMSO, 5 days incubation, melanin at 490 nm”, the inhibition (as a rule, the percentage by which the read-out fell short of the control) at 2.5e-05 % strength worked out at 5.49%. This compound came in with an inhibition at 0.00025 % strength (Melanocyte, 120 h, 0.00025% by weight solution in DMSO, 5 days incubation, melanin at 490 nm) of 6.7%. This compound also yielded an inhibition at 0.0025 % strength (Melanocyte, 120 h, 0.0025% by weight solution in DMSO, 5 days incubation, melanin at 490 nm) of 32.8%.
